From ChEMBL document CHEMBL3727374, “Compounds, pharmaceutical compositions, and methods of treating or preventing neurodegenerative diseases or disorders” (2012)
The source made the active and inactive calls. No cut-off for these calls is given here.

Key:
[1] = biological target: T1, Phosphatidylinositol 5-phosphate 4-kinase type-2 gamma (Homo sapiens, UniProt Q8TBX8); test: Inhibition of PIP5K2C (unknown origin)
T1 sequence (Q8TBX8 whole entry): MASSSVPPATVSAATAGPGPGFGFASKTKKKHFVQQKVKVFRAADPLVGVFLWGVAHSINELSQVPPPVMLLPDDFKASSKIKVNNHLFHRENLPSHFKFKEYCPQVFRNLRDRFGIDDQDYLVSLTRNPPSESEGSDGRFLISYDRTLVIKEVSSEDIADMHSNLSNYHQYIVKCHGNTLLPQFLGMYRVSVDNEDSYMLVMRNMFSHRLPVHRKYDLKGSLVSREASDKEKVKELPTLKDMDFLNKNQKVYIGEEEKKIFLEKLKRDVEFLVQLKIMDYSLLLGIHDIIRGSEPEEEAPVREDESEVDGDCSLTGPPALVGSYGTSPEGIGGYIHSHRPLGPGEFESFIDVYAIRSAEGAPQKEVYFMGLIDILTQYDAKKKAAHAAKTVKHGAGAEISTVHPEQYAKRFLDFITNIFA

[2] = biological target: Huntingtin (Homo sapiens, UniProt P42858); test: Inhibition of GFP-fused Huntingtin protein Q103/Q25 mutant (unknown origin) […] assessed as protection against huntingtin protein aggregation incubated for 48 hrs by multiplexed assay based HTT f3(agr) method; type: cell-based; settings: pc-12
Sequence of Huntingtin (P42858 whole entry, looked up, stated change not applied, the tested form may be a part): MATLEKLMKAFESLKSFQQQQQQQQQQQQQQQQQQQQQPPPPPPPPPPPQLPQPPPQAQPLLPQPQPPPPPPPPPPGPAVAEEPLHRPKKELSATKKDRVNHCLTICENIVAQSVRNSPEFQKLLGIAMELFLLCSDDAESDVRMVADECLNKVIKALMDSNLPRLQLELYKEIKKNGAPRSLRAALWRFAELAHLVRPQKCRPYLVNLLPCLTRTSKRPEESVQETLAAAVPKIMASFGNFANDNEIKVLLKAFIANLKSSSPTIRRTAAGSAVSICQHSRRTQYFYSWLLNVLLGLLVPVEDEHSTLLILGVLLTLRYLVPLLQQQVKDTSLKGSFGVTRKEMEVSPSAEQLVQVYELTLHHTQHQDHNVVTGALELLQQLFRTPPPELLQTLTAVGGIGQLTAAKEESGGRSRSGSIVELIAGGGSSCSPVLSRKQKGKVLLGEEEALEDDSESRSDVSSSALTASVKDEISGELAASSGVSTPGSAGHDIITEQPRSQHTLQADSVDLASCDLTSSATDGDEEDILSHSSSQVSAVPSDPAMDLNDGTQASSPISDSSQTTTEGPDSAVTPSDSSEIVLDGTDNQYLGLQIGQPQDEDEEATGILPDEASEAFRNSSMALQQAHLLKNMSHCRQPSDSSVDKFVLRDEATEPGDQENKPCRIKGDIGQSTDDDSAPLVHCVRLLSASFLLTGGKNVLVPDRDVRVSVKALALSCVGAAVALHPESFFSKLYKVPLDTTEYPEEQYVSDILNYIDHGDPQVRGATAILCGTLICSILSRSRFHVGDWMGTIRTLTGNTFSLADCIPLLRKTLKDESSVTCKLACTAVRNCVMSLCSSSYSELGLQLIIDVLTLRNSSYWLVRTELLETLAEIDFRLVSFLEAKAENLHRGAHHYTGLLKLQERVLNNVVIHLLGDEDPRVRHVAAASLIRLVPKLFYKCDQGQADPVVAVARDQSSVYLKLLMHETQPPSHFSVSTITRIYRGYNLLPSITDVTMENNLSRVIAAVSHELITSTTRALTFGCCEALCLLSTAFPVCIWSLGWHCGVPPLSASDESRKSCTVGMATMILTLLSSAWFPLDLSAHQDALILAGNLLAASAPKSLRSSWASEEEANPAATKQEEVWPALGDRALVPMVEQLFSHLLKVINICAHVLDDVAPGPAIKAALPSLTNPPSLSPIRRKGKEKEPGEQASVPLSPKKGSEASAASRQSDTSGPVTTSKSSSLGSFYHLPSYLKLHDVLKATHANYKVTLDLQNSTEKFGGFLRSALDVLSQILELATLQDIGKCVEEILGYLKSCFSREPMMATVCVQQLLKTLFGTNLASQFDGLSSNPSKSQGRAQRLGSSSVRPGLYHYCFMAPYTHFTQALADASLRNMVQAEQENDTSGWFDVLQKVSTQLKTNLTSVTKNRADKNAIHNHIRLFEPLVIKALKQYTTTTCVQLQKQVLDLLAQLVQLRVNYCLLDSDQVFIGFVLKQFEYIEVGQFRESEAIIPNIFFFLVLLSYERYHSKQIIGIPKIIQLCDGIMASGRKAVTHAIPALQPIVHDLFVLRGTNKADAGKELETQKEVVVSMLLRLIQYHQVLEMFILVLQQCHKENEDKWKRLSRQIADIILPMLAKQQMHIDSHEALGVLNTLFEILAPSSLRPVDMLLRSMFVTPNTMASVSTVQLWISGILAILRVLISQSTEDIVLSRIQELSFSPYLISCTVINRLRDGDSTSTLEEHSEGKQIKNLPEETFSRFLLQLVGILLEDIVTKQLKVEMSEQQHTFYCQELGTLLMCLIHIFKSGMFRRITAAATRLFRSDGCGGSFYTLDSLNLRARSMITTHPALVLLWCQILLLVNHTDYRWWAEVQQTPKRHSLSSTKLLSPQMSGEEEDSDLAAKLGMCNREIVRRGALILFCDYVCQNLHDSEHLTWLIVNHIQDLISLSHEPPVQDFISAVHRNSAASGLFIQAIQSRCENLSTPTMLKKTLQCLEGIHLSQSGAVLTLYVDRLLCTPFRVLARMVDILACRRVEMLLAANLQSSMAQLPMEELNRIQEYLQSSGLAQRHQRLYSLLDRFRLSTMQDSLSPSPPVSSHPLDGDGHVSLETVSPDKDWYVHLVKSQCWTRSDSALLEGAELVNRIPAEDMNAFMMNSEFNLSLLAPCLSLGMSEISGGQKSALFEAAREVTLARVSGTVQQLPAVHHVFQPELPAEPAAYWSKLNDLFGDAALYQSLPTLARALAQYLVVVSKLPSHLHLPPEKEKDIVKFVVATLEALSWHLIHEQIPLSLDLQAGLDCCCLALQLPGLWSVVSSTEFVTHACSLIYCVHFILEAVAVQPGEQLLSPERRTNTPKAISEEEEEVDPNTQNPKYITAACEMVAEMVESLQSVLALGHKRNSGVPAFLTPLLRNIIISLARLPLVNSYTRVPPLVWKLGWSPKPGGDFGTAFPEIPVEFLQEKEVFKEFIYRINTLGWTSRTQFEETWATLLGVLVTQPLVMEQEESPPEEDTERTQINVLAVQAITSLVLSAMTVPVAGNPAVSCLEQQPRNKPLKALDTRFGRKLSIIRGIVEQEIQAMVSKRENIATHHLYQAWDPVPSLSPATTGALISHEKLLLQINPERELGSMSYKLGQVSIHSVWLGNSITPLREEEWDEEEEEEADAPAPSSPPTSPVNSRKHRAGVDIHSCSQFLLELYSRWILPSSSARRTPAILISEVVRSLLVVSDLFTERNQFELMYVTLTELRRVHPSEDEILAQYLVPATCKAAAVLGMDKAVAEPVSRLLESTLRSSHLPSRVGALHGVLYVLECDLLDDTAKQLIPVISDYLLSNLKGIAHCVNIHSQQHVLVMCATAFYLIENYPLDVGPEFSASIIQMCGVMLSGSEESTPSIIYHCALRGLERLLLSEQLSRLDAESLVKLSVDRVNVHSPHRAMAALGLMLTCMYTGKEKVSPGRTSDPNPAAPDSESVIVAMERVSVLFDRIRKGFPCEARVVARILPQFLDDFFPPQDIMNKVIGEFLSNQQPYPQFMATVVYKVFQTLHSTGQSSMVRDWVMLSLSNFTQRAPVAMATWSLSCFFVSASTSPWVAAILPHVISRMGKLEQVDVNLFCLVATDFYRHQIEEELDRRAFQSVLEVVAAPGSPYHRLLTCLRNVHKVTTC

[3] = Stability in mouse liver microsomes assessed as parent compound remaining at 1 uM incubated for 60 mins in presence of NADPH; type: ADME; settings: read-out: Stability
[4] = Stability in mouse liver microsomes assessed as parent compound remaining at 1 uM incubated for 60 mins in absence of NADPH; type: ADME; settings: read-out: Stability
[5] = system: STHdhQ111; test: Cytoprotective activity in mouse STHdhQ111 cells assessed as protection against H2O2-induced cell death at 10 nM to 1 uM by MTT assay; type: functional, cell-based
[6] = system: STHdhQ111; test: Cytoprotective activity in mouse STHdhQ111 cells assessed as protection against beta-amyloid-induced cell death at 10 nM to 1 uM by MTT assay; type: functional, cell-based
[7] = Stability in mouse liver microsomes assessed as parent compound remaining at 5 uM incubated for 60 mins in absence of NADPH; type: ADME; settings: read-out: Stability
[8] = Stability in mouse liver microsomes assessed as parent compound remaining at 5 uM incubated for 60 mins in presence of NADPH; type: ADME; settings: read-out: Stability
[9] = system: STHdhQ111; test: Cytoprotective activity in mouse STHdhQ111 cells against serum free medium-induced apoptotic cell death assessed as inhibition of caspase-9 activation incubated for 16 hrs; type: functional, cell-based
[10] = system: STHdhQ111; test: Cytoprotective activity in mouse STHdhQ111 cells against serum free medium-induced apoptotic cell death assessed as inhibition of caspase-3 activation incubated for 16 hrs; type: functional, cell-based

| Kd [1] [µM] | AC50 [2] [µM] | Compound | further results |
| --- | --- | --- | --- |
| 44.7 |  | CC(=O)c1ccccc1-c1csc2ncnc(Sc3nnnn3C)c12 |  |
| 79.4 | 31.6 | COc1ccccc1-c1csc2ncnc(Sc3nnnn3C)c12 |  |
| 3.98 | 31.6 | Cn1nnnc1Sc1ncnc2scc(-c3cccc(N)c3)c12 |  |
| > 100 | 35.5 | Cn1nnnc1Sc1ncnc2scc(-c3ccc(C(=O)OC(C)(C)C)cc3)c12 |  |
| 11.2 | 39.8 | COc1ccc(-c2csc3ncnc(Sc4nnnn4C)c23)cc1 |  |
| 11.2 | 35.5 | Cc1cccc(-c2csc3ncnc(Sc4nnnn4C)c23)c1 |  |
| 6.3 |  | Cn1nnnc1Sc1ncnc2scc(-c3ccccc3C#N)c12 |  |
| 6.3 | 35.5 | Cn1nnnc1Sc1ncnc2scc(-c3cccc(C(F)(F)F)c3)c12 |  |
| 3.55 | 39.8 | Cn1nnnc1Sc1ncnc2scc(-c3ccccc3)c12 |  |
| 2.82 | 35.5 | Cn1nnnc1Sc1ncnc2scc(-c3cccc(Br)c3)c12 |  |
| 44.7 |  | Cc1ccccc1-c1csc2ncnc(Sc3nnnn3C)c12 |  |
| 6.31 | 14.1 | Cn1nnnc1Sc1ncnc2scc(-c3cccc(F)c3)c12 |  |
| 6.31 | 35.5 | Cn1nnnc1Sc1ncnc2scc(-c3ccc([N+](=O)[O-])cc3)c12 |  |
|  | 39.8 | CC(=O)c1ccc(-c2csc3ncnc(Sc4nnnn4C)c23)cc1 | remaining at 1 h, 1 µM [3]: 2%; remaining at 1 h, 1 µM [4]: 91% |
| 6.31 | 35.5 | Cn1nnnc1Sc1ncnc2scc(-c3ccccc3F)c12 |  |
| 39.8 | 35.5 | Cn1nnnc1Sc1ncnc2scc(-c3ccc(Br)cc3)c12 |  |
| 7.94 | 35.5 | Cn1nnnc1Sc1ncnc2scc(-c3ccsc3)c12 |  |
| 28.2 | 39.8 | Cn1nnnc1Sc1ncnc2scc(-c3ccc(Cl)cc3)c12 |  |
| 5.62 |  | Cn1nnnc1Sc1ncnc2scc(-c3ccc(N)cc3)c12 |  |
| 11.2 | 22.4 | Cn1nnnc1Sc1ncnc2scc(-c3cccc(Cl)c3)c12 |  |
| 0.89 | 35.5 | Cn1nnnc1Sc1ncnc2scc(I)c12 |  |
| 2.51 | 35.5 | Cn1nnnc1Sc1ncnc2scc(-c3cccc(C#N)c3)c12 |  |
| 2.82 | 35.5 | Cn1nnnc1Sc1ncnc2scc(-c3cccs3)c12 | remaining at 1 h, 1 µM [3]: 0%; remaining at 1 h, 1 µM [4]: 88% |

| Kd [1] [µM] | AC50 [2] [µM] | Compound | further results |
| --- | --- | --- | --- |
| 2.82 | 7.94 | Cn1nnnc1Sc1ncnc2scc(-c3cc4ccccc4o3)c12 |  |
| 1.99 | 35.5 | Cn1nnnc1Sc1ncnc2scc(-c3ccc4c(=O)ccoc4c3)c12 |  |
| 5.62 | 31.6 | Cn1nnnc1Sc1ncnc2scc(-c3ccc[nH]3)c12 |  |
|  | 28.2 | CC(=O)c1cccc(-c2csc3ncnc(Sc4nnnn4C)c23)c1 | Activity [5]: Active; Activity [6]: Active |
| 11.2 | 15.8 | Cn1nnnc1Sc1ncnc2scc(-c3ccccc3[N+](=O)[O-])c12 |  |
| > 100 | 35.5 | Cn1nnnc1Sc1ncnc2scc(-c3cccc4c3sc3ccccc34)c12 |  |
| 1.12 | 5.01 | Cn1nnnc1Sc1ncnc2scc(Br)c12 |  |
| 63.1 | 28.2 | Cn1nnnc1Sc1ncnc2scc(-c3ccccc3C(F)(F)F)c12 |  |
| 0.63 | 39.8 | Cn1nnnc1Sc1ncnc2scc(-c3cccc(S(C)(=O)=O)c3)c12 | remaining at 1 h, 5 µM [7]: 89%; remaining at 1 h, 5 µM [8]: 70% |
| > 100 |  | CS(=O)(=O)c1cccc(-c2csc3ncnc(NCCN)c23)c1 |  |
| > 100 | 35.5 | Cn1nnnc1Sc1ncnc2scc(-c3ccc(C(F)(F)F)cc3)c12 |  |
| 3.98 | 28.2 | COc1cccc(-c2csc3ncnc(Sc4nnnn4C)c23)c1 |  |
| 14.1 |  | Cn1nnnc1Sc1ncnc2scc(-c3ccccc3Cl)c12 |  |
| > 100 | 35.5 | Cn1nnnc1Sc1ncnc2scc(-c3cccc4ccccc34)c12 |  |
| 14.1 | 39.8 | Cc1ccc(-c2csc3ncnc(Sc4nnnn4C)c23)cc1 |  |
| 1.58 | 35.5 | Cn1nnnc1Sc1ncnc2scc(-c3cccc([N+](=O)[O-])c3)c12 |  |
| 63.1 | 15.8 | Cn1nnnc1Sc1ncnc2scc(-c3ccc4ccccc4c3)c12 |  |
| 12.6 | 35.5 | Cn1nnnc1Sc1ncnc2scc(-c3ccc(C#N)cc3)c12 |  |
| 12.6 | 20 | Cn1nnnc1Sc1ncnc2scc(-c3ccc4c(c3)OCO4)c12 |  |
| > 100 | 28.2 | Cn1nnnc1Sc1ncnc2scc(-c3ccc(-c4ccccc4)cc3)c12 |  |
| 12.6 | 20 | Cn1nnnc1Sc1ncnc2scc(-c3ccc(F)cc3)c12 | Activity [9]: Active; Activity [10]: Active |
| 7.94 | 15.8 | Cn1nnnc1Sc1ncnc2scc(-c3ccc(S(C)(=O)=O)cc3)c12 |  |
